Assay results from PMC5766998, “Determination of the native features of the exoglucanase Cel48S from Clostridium thermocellum” (Biotechnology for Biofuels, 2018).

Molecular target: T1, ctCel48S_CD (Acetivibrio thermocellus, UniProt C7ED31)
T1 construct: GH48 catalytic domain, dockerin removed by inserted stop codon; C-terminal Gly5 linker and His12 tag kept; purified from culture supernatant of C. thermocellum DSM1313 (secreted); monomer
Assay: reducing sugars released, HPLC
Format: biochemical
Details: 1% (wt/vol) substrate, 50 mM succinate pH 5.7, 10 mM CaCl2, 55 °C, 5 h

T1 sequence (C7ED31 entry or part of it): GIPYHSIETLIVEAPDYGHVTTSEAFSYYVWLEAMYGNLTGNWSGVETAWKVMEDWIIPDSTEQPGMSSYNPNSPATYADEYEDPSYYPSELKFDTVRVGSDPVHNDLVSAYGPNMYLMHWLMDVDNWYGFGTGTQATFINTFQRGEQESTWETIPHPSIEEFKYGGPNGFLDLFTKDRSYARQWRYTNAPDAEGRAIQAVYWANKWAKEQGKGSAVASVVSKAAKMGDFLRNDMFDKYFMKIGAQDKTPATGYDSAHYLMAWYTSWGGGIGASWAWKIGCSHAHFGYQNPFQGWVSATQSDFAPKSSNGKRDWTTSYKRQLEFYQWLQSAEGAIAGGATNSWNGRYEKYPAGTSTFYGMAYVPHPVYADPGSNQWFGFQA

| SMILES | reducing sugars released, HPLC |
| --- | --- |
| OC[C@H]1O[C@@H](O[C@H]2[C@H](O)[C@@H](O)[C@H](O[C@H]3[C@H](O)[C@@H](O)[C@H](O[C@H]4[C@H](O)[C@@H](O)[C@H](O[C@H]5[C@H](O)[C@@H](O)C(O)O[C@@H]5CO)O[C@@H]4CO)O[C@@H]3CO)O[C@@H]2CO)[C@H](O)[C@@H](O)[C@@H]1O (some centres unmarked) [cellopentose] | ctCel48S_CD could also hydrolyze cellopentose and cellotetrose |
| OC[C@H]1O[C@@H](O[C@H]2[C@H](O)[C@@H](O)[C@H](O[C@H]3[C@H](O)[C@@H](O)[C@H](O[C@H]4[C@H](O)[C@@H](O)C(O)O[C@@H]4CO)O[C@@H]3CO)O[C@@H]2CO)[C@H](O)[C@@H](O)[C@@H]1O (some centres unmarked) [cellotetrose] | ctCel48S_CD could also hydrolyze cellopentose and cellotetrose |
